Key:
[1] = tested on: gut microbiota from WKYs; assay: Anaerobic incubation of drug with fecal gut microbiota from WKYs; format: in vitro ADME, rat; conditions: for Qualitative analysis: metabolism to other compounds: WKY gut microbiota in vitro, UHPLC-Q-TOF-MS; for Remaining content: WKY gut microbiota, 40 μM drug, anaerobic 37 °C, mGAM
Description: (§1) Fresh fecal samples from WKYs and SHRs were collected and immediately transferred to an anaerobic chamber (90% N₂, 5% CO₂, 5% H₂). Fecal suspensions were prepared by homogenizing 1 g of feces in 15 mL of sterile phosphate-buffered saline containing 0.1% L-cysteine. […] Bacteria-free controls contained equivalent drug volumes consistently. […] Drug remaining content and non-target metabolites screen were detected by ultra-high performance liquid chromatography coupled with triple quadrupole mass spectrometry (UHPLC-TQ-MS) and ultra-high performance liquid chromatography with quadrupole time-of-flight mass spectrometry (UHPLC-Q-TOF-MS), respectively. The sample preparation process can be found in the Supplementary material. For UHPLC-Q-TOF-MS analysis, the MS parameters and IDA criteria can be seen in Supplementary Table S1.
(§2) The sample processing procedures were tailored to align with the experimental objectives. For qualitative metabolite profiling, supernatants from the co-incubation of bacteria and drugs were collected at designated time points, filtered using a 0.22 μm membrane, lyophilized, and reconstituted in 200 μL of methanol. After vortexing and centrifuging for 10 minutes at 4°C and 12,000 rpm, the supernatant was transferred to an LC vial, and 5 μL aliquot was injected into the UHPLC-Q-TOF-MS/MS. For quantitative analysis, 100 μL aliquots were taken from the co-incubation supernatant and spiked with 1,000 μL of methanol containing 500 ng/mL of irbesartan. Following one minute of vortexing and centrifugation at 12,000 rpm for 10 minutes, the resulting supernatant was transferred to an LC vial, and a 5μL aliquot was injected into the UHPLC-TQ-MS/MS.

[2] = tested on: Enterococcus faecalis (ATCC 51299); format: in vitro ADME; conditions: tested concentrations; OD600
Description: (§3) Enterococcus faecalis (ATCC 51299, BNCC) was cultured in modified brain heart infusion (BHI) broth supplemented with L-cysteine HCl (0.5 g/L), vitamin K1 (10 mg/L), hemin (5 mg/L) and resazurin (1 mg/L). Limosilactobacillus reuteri (JCM 1112, Guangdong Academy of Sciences) was cultured in MRS medium at 37 °C in an anaerobic chamber (5%H2, 5%CO2 and 90%N2). Drug metabolism assays were performed in 96-well plates under optimal growth conditions for each strain. […] Each experiment comprised three biological replicates, including a bacteria-free control. The growth of strains was monitored by measuring OD600 (Eon Microplate Spectrophotometer, BioTek) every 2 h for the first 10 h, followed by 12 to 24 h intervals until 72 h. Supernatants were withdrawn at 6, 12, 24, 48, and 72 h. The remaining drug content and the formation of E-3179 were quantified via UHPLC-TQ-MS. The sample preparation for quantitative analysis was the same as in section 2.3.

[3] = Metabolites detection in vivo in plasma, feces and urine (UHPLC-Q-TOF-MS); parameters: species or system rat; conditions: single oral losartan potassium 20 mg/kg
Description: For urine and feces, cumulative samples were collected over the following time intervals: 0–4, 4–8, 8–12, and 12–24 h after administration. The processing of the biological samples can be found in the Supplementary material.
The biological samples were processed as follows: For plasma, a total of 400 μL of pooled plasma was mixed by combining 50 μL aliquots from each time point. A 100 μL aliquot was mixed with 300 μL of methanol, vortexed for one minute, and centrifuged at 5,000 rpm for 10 minutes at 4°C [1]. In the case of urine, 1 mL was centrifuged at 4,000 rpm for 20 minutes at 4°C, and the supernatant was mixed with 2 mL of methanol, vortexed for one minute, and centrifuged at 12,000 rpm for 10 minutes at 4°C [2]. For fecal samples, 1.0 g of homogenized feces was extracted with 4 mL of methanol, sonicated in an ice-water bath for 20 minutes, and then centrifuged at 12,000 rpm for 10 minutes at 4°C [3]. Supernatants from the plasma, urine, and fecal extracts were evaporated under nitrogen gas, redissolved in methanol, and transferred to liquid chromatography vials. Samples were analyzed using UHPLC-Q-TOF-MS/MS for metabolite profiling.

[4] = tested on: gut microbiota from SHRs; assay: Anaerobic incubation of drug with fecal gut microbiota from SHRs; format: in vitro ADME, rat; conditions: for Qualitative analysis: metabolism to other compounds: SHR gut microbiota in vitro, UHPLC-Q-TOF-MS; for Remaining content: SHR gut microbiota, 40 μM drug, anaerobic 37 °C, mGAM
Description: as §1, §2

[5] = Stability of the analytes in rat plasma at different storage conditions; format: in vitro ADME
Description: Analysis of QC samples was performed according to a standard curve, which was obtained from freshly prepared calibration standard samples. The autosampler stability was determined by placing samples in the autosampler rack at 8 ℃ for 24 h. The freeze-thaw stability was evaluated after three complete freeze-thaw cycles (-80 ℃ to 25 ℃) on consecutive days. The short-term stability was determined after samples were exposed to room temperature for 6 h. The long-term stability was assessed after storing the samples at -80 ℃ for 30 days. The analytes were considered stable if the deviation between the mean measured concentration and the nominal concentration was within ± 15.0%.

[6] = tested on: Limosilactobacillus reuteri (JCM 1112); assay: Co-incubation of drug with L. reuteri (degradation, growth); format: in vitro ADME; conditions: tested concentrations; OD600
Description: as §3

[7] = autosampler for 24 h (8 ℃), high nominal conc. (losartan 8000, E-3174 4000, E-3179 1600 ng/mL)
[8] = autosampler for 24 h (8 ℃), low nominal conc. (losartan 0.2, E-3174 10, E-3179 0.4 ng/mL)
[9] = autosampler for 24 h (8 ℃), middle nominal conc. (losartan 2000, E-3174 1000, E-3179 400 ng/mL)
[10] = room temperature for 6 h, high nominal conc. (losartan 8000, E-3174 4000, E-3179 1600 ng/mL)
[11] = room temperature for 6 h, low nominal conc. (losartan 0.2, E-3174 10, E-3179 0.4 ng/mL)
[12] = room temperature for 6 h, middle nominal conc. (losartan 2000, E-3174 1000, E-3179 400 ng/mL)
[13] = three freeze-thaw cycles, high nominal conc. (losartan 8000, E-3174 4000, E-3179 1600 ng/mL)
[14] = three freeze-thaw cycles, low nominal conc. (losartan 0.2, E-3174 10, E-3179 0.4 ng/mL)
[15] = three freeze-thaw cycles, middle nominal conc. (losartan 2000, E-3174 1000, E-3179 400 ng/mL)
[16] = −80°C for 30 days, high nominal conc. (losartan 8000, E-3174 4000, E-3179 1600 ng/mL)
[17] = −80°C for 30 days, low nominal conc. (losartan 0.2, E-3174 10, E-3179 0.4 ng/mL)
[18] = −80°C for 30 days, middle nominal conc. (losartan 2000, E-3174 1000, E-3179 400 ng/mL)

Structure (SMILES) | Qualitative analysis: metabolism to other compounds [1] | Remaining content ([1]; 0 h) [µM] | Remaining content ([1]; 12 h) [µM] | Remaining content ([1]; 24 h) [µM] | Remaining content ([1]; 48 h) [µM] | Inhibition of growth of E. faecalis [2] | Abundance in feces and plasma, SHRs vs WKYs [3] | Qualitative analysis: metabolism to other compounds [4] | Remaining content ([4]; 0 h) [µM] | Remaining content ([4]; 12 h) [µM] | Remaining content ([4]; 24 h) [µM] | Remaining content ([4]; 48 h) [µM] | Stability RE [5, 7] [%] | Stability RE [5, 8] [%] | Stability RE [5, 9] [%] | Stability RE [5, 10] [%] | Stability RE [5, 11] [%] | Stability RE [5, 12] [%] | Stability RE [5, 13] [%] | Stability RE [5, 14] [%] | also measured
CCCCc1nc(Cl)c(C(=O)O)n1Cc1ccc(-c2ccccc2-c2nnn[nH]2)cc1 [E-3174] | neither losartan nor E-3174 was metabolized to other compounds | 37.45 ± 1.33 | 41.40 ± 1.42 | 39.27 ± 1.11 | 31.95 ± 1.41 | did not inhibit the growth | lower in SHRs than in WKYs | neither losartan nor E-3174 was metabolized to other compounds | 38.21 ± 0.11 | 39.55 ± 2.13 | 35.95 ± 1.41 | 27.07 ± 6.32 | 2.69 | -4.63 | -1.40 | 0.27 | 3.95 | 11.23 | 5.22 | 0.33 | Stability RE [5, 15]: 8.12%; Stability RE [5, 16]: 5.50%; Stability RE [5, 17]: 1.75%; Stability RE [5, 18]: 5.09%; Inhibition of growth of L. reuteri [6]: did not inhibit the growth
CCCCc1nc(Cl)c(CO)n1Cc1ccc(-c2ccccc2-c2nn[nH]n2)cc1 [Losartan, Losartan potassium] | neither losartan nor E-3174 was metabolized to other compounds | 37.78 ± 2.05 | 36.96 ± 2.06 | 36.03 ± 0.78 | 33.85 ± 0.96 | did not inhibit the growth | lower in SHRs than in WKYs | neither losartan nor E-3174 was metabolized to other compounds | 37.62 ± 1.03 | 38.41 ± 2.14 | 33.51 ± 2.35 | 32.98 ± 2.19 | 8.67 | -4.05 | 12.50 | 5.37 | 12.66 | 10.42 | 6.18 | -2.68 | Abundance in urine, SHRs vs WKYs [3]: more abundant in urine; Stability RE [5, 15]: 9.49%; Stability RE [5, 16]: 4.25%; Stability RE [5, 17]: -7.51%; Stability RE [5, 18]: 12.98%; Inhibition of growth of L. reuteri [6]: did not inhibit the growth

Reference: article PMC12705613 (Frontiers in Microbiology, 2025)
